Starred links: 1 amine or outer side, 2 acyl side, 3 side chain; linkers in the order of their positions; H or OH if unused. Non-standard residues stand in square brackets, D forms with d. Residues, ends and D or L forms follow the SMILES beside them. *: point of attachment. dAla(cis-4-NHCOPyz-cHex) = N[C@H](C[C@H]1CC[C@@H](NC(=O)c2cnccn2)CC1)C(=O)O; X4 = O=C(N[C@H]1CC[C@@H](C[C@@H](N[*:1])C(=O)[*:2])CC1)c1cccnc1; X7 = O=C(N[C@H]1CC[C@H](C[C@@H](N[*:1])C(=O)[*:2])CC1)c1cccnc1; dPhe(4-Cl) = N[C@H](Cc1ccc(Cl)cc1)C(=O)O; Pyrimidin2yl(4,6-Me2) = Cc1cc(C)nc(*)n1; d2Nal = N[C@H](Cc1ccc2ccccc2c1)C(=O)O; dLys(iPr) = CC(C)NCCCC[C@@H](N)C(=O)O; dLys(Me2) = CN(C)CCCC[C@@H](N)C(=O)O; Lys(iPr) = CC(C)NCCCC[C@H](N)C(=O)O; Orn(iPr) = CC(C)NCCC[C@H](N)C(=O)O; NH(4-MeO-phenyl) = COc1ccc(N*)cc1; Pyrazinecarbonyl = O=C(c1cnccn1)*; d3Pal = N[C@H](Cc1cccnc1)C(=O)O; Cit = NC(=O)NCCC[C@H](N)C(=O)O; Nicotinoyl = O=C(c1cccnc1)*; Picolinoyl = O=C(c1ccccn1)*; Pip = O=C(O)[C@@H]1CCCCN1; Nle = CCCC[C@H](N)C(=O)O; Orn = NCCC[C@H](N)C(=O)O; dAbu = CC[C@@H](N)C(=O)O; Abu = CC[C@H](N)C(=O)O
These compounds were tested on anaesthesized rats (assay: wheal test, intradermal injection). Details: 10 ug peptide intradermally.
Format: in vivo, rat
Description: The antiovulatory activity, AOA, in rats was determined as described by Humphries et al. (12). Antiovulation assays were performed by counting, on estrus, the number of ova shed by 4-day cycling rats after a single sc injection of the LH-RH analogue in corn oil was administered between 12 and 12:30 p.m. on […]. The control rats received 0.3 mL of the vehicle. The wheal test was performed by intradermally injecting 10 ug of peptide in 100 ul of saline into anaesthesized rats, measuring the ideally circular wheal response and calculating the area. The in vitro histamine release test was done as described by Karten et al. (4). A suspension of rat mast cells was added to increasing concentrations of peptide and the mixture was incubated for a few minutes followed by centrifugation to collect the histamine in the supernatant. A PIPES (piperazine-N,N'-bis[2-ethanesulfonic acid]) medium buffered at pH 7.4 containing NaCl 119 mM, KCl 5 mM, PIPES 25 mM, NaOH 40 mM, glucose 5.6 mM, CaCl2 1 mM, and 0.1% bovine serum albumin was used. This was designated as PIPES AC. Peptides were dissolved in double distilled H2 O at a concentration of 2 mg/ml and stored at -20° C. They were thawed just prior to testing, diluted in PIPES AC and prewarmed for five minutes at 37° C. Peptides studied were stable to heating at 56° C. for two hours, and to freezing and thawing.

SMILES | Wheal Area [mm^2 /10 μg]
CC(=O)N[C@H](Cc1ccc2ccccc2c1)C(=O)N[C@H](Cc1ccc(Cl)cc1)C(=O)N[C@H](Cc1cccnc1)C(=O)N[C@@H](CO)C(=O)N[C@@H](Cc1ccc(O)cc1)C(=O)N[C@H](C[C@H]1CC[C@@H](NC(=O)c2cnccn2)CC1)C(=O)N[C@@H](CC(C)C)C(=O)N[C@@H](CCCCNC(C)C)C(=O)N1CCC[C@H]1C(=O)N[C@H](CO)C(N)=O [compound 26365] (Ac-[d2Nal][dPhe(4-Cl)][d3Pal]SY[dAla(cis-4-NHCOPyz-cHex)]L[Lys(iPr)]P[dS]-NH2) | 129.4 ± 3.3
CC[C@@H](NC(=O)[C@@H]1CCCN1C(=O)[C@H](CCCCNC(C)C)NC(=O)[C@H](CC(C)C)NC(=O)[C@@H](CCCCNC(=O)c1ccccn1)NC(=O)[C@H](CCCCNC(=O)c1ccccn1)NC(=O)[C@H](CO)NC(=O)[C@@H](Cc1cccnc1)NC(=O)[C@@H](Cc1ccc(Cl)cc1)NC(=O)[C@@H](Cc1ccc2ccccc2c1)NC(C)=O)C(N)=O [compound 26019] (Ac-[d2Nal][dPhe(4-Cl)][d3Pal]SK(Picolinoyl)[dK](Picolinoyl)L[Lys(iPr)]P[dAbu]-NH2) | 109.9 ± 3.0
CC[C@H](NC(=O)[C@@H](CCCCNC(=O)c1ccccn1)NC(=O)[C@H](CCCNC(N)=O)NC(=O)[C@H](CO)NC(=O)[C@@H](Cc1cccnc1)NC(=O)[C@@H](Cc1ccc(Cl)cc1)NC(=O)[C@@H](Cc1ccc2ccccc2c1)NC(C)=O)C(=O)N[C@@H](CCCCNC(C)C)C(=O)N1CCC[C@H]1C(=O)N[C@H](C)C(N)=O [compound 26382] (Ac-[d2Nal][dPhe(4-Cl)][d3Pal]S[Cit][dK](Picolinoyl)[Abu][Lys(iPr)]P[dA]-NH2) | 89.5 ± 5.5
CC(=O)N[C@H](Cc1ccc2ccccc2c1)C(=O)N[C@H](Cc1ccc(Cl)cc1)C(=O)N[C@H](Cc1cccnc1)C(=O)N[C@@H](CO)C(=O)N[C@@H](CCCCNC(=O)c1cccnc1)C(=O)N[C@H](CCCCNC(=O)c1cnccn1)C(=O)N[C@@H](CC(C)C)C(=O)N[C@@H](CCCNC(C)C)C(=O)N1CCC[C@H]1C(=O)N[C@H](C)C(N)=O [compound 25991] (Ac-[d2Nal][dPhe(4-Cl)][d3Pal]SK(Nicotinoyl)[dK](Pyrazinecarbonyl)L[Orn(iPr)]P[dA]-NH2) | 104.3 ± 10.5
CC(=O)N[C@H](Cc1ccc2ccccc2c1)C(=O)N[C@H](Cc1ccc(Cl)cc1)C(=O)N[C@H](Cc1cccnc1)C(=O)N[C@@H](CO)C(=O)N[C@@H](CCCCNC(=O)c1cccnc1)C(=O)N[C@H](C[C@H]1CC[C@H](NC(=O)c2cccnc2)CC1)C(=O)N[C@@H](CC(C)C)C(=O)N[C@@H](CCCCNC(C)C)C(=O)N1CCC[C@H]1C(=O)N[C@H](C)C(N)=O [IBR 25647] (Ac-[d2Nal][dPhe(4-Cl)][d3Pal]SK(Nicotinoyl)[X7]L[Lys(iPr)]P[dA]-NH2) | 119.5 ± 3.2
CC(=O)N[C@H](Cc1ccc2ccccc2c1)C(=O)N[C@H](Cc1ccc(Cl)cc1)C(=O)N[C@H](Cc1cccnc1)C(=O)N[C@@H](CO)C(=O)N[C@@H](CCCCNC(=O)c1ccccn1)C(=O)N[C@H](CCCCNC(=O)c1ccccn1)C(=O)N[C@@H](CC(C)C)C(=O)N[C@@H](CCCCNC(C)C)C(=O)N1CCCC[C@H]1C(=O)N[C@H](C)C(N)=O [compound 25937] (Ac-[d2Nal][dPhe(4-Cl)][d3Pal]SK(Picolinoyl)[dK](Picolinoyl)L[Lys(iPr)][Pip][dA]-NH2) | 95.0 ± 0
CCCC[C@H](NC(=O)[C@@H](CCCCNC(=O)c1ccccn1)NC(=O)[C@H](CCCCNC(=O)c1ccccn1)NC(=O)[C@H](CO)NC(=O)[C@@H](Cc1cccnc1)NC(=O)[C@@H](Cc1ccc(Cl)cc1)NC(=O)[C@@H](Cc1ccc2ccccc2c1)NC(C)=O)C(=O)N[C@@H](CCCCNC(C)C)C(=O)N1CCC[C@H]1C(=O)N[C@H](C)C(N)=O [compound 25988] (Ac-[d2Nal][dPhe(4-Cl)][d3Pal]SK(Picolinoyl)[dK](Picolinoyl)[Nle][Lys(iPr)]P[dA]-NH2) | 107.0 ± 6.0

Same assay, conditions: Table I; 10 ug peptide intradermally

SMILES | Wheal [mm^2 /10]
CC(=O)N[C@H](Cc1ccc2ccccc2c1)C(=O)N[C@H](Cc1ccc(Cl)cc1)C(=O)N[C@H](Cc1cccnc1)C(=O)N[C@@H](CO)C(=O)N[C@@H](CCCCNC(=O)c1cccnc1)C(=O)N[C@H](Cc1cccnc1)C(=O)N[C@@H](CC(C)C)C(=O)N[C@@H](CCCNC(=N)N)C(=O)N1CCC[C@H]1C(=O)N[C@H](C)C(N)=O [compound 22495] (Ac-[d2Nal][dPhe(4-Cl)][d3Pal]SK(Nicotinoyl)[d3Pal]LRP[dA]-NH2) | 112
CC(=O)N[C@H](Cc1ccc2ccccc2c1)C(=O)N[C@H](Cc1ccc(Cl)cc1)C(=O)N[C@H](Cc1cccnc1)C(=O)N[C@@H](CO)C(=O)N[C@@H](CCCCNC(=O)c1cccnc1)C(=O)N[C@H](CCCCNC(C)C)C(=O)N[C@@H](CC(C)C)C(=O)N[C@@H](CCCNC(=N)N)C(=O)N1CCC[C@H]1C(=O)N[C@H](C)C(N)=O [compound 24754] (Ac-[d2Nal][dPhe(4-Cl)][d3Pal]SK(Nicotinoyl)[dLys(iPr)]LRP[dA]-NH2) | 196.9 ± 4.1
CC(=O)N[C@H](Cc1ccc2ccccc2c1)C(=O)N[C@H](Cc1ccc(Cl)cc1)C(=O)N[C@H](Cc1cccnc1)C(=O)N[C@@H](CO)C(=O)N[C@@H](Cc1ccc(O)cc1)C(=O)N[C@H](CCCCNC(=O)c1cccnc1)C(=O)N[C@@H](CC(C)C)C(=O)N[C@@H](CCCNC(=N)N)C(=O)N1CCC[C@H]1C(=O)N[C@H](C)C(N)=O [compound 22396] (Ac-[d2Nal][dPhe(4-Cl)][d3Pal]SY[dK](Nicotinoyl)LRP[dA]-NH2) | 85
CC(=O)N[C@H](Cc1ccc2ccccc2c1)C(=O)N[C@H](Cc1ccc(Cl)cc1)C(=O)N[C@H](Cc1cccnc1)C(=O)N[C@@H](CO)C(=O)N[C@@H](CCCNc1nc(C)cc(C)n1)C(=O)N[C@H](CCCCNC(=O)c1cccnc1)C(=O)N[C@@H](CC(C)C)C(=O)N[C@@H](CCCCNC(C)C)C(=O)N1CCC[C@H]1C(=O)N[C@H](C)C(N)=O [compound 25506] (Ac-[d2Nal][dPhe(4-Cl)][d3Pal]S[Orn](Pyrimidin2yl(4,6-Me2))[dK](Nicotinoyl)L[Lys(iPr)]P[dA]-NH2) | 110 ± 3
CC(=O)N[C@H](Cc1ccc2ccccc2c1)C(=O)N[C@H](Cc1ccc(Cl)cc1)C(=O)N[C@H](Cc1cccnc1)C(=O)N[C@@H](CO)C(=O)N[C@@H](Cc1ccc(O)cc1)C(=O)N[C@H](CCCNC(=N)N)C(=O)N[C@@H](CC(C)C)C(=O)N[C@@H](CCCCNC(=O)c1cccnc1)C(=O)N1CCC[C@H]1C(=O)N[C@H](C)C(N)=O [compound 24749] (Ac-[d2Nal][dPhe(4-Cl)][d3Pal]SY[dR]LK(Nicotinoyl)P[dA]-NH2) | 136.3
CC(=O)N[C@H](Cc1ccc2ccccc2c1)C(=O)N[C@H](Cc1ccc(Cl)cc1)C(=O)N[C@H](Cc1cccnc1)C(=O)N[C@@H](CO)C(=O)N[C@@H](CCCCNC(=O)c1cccnc1)C(=O)N[C@H](CCCCN(C)C)C(=O)N[C@@H](CC(C)C)C(=O)N[C@@H](CCCCNC(C)C)C(=O)N1CCC[C@H]1C(=O)N[C@H](C)C(N)=O [compound 25591] (Ac-[d2Nal][dPhe(4-Cl)][d3Pal]SK(Nicotinoyl)[dLys(Me2)]L[Lys(iPr)]P[dA]-NH2) | 111 ± 2
CC(=O)N[C@H](Cc1ccc2ccccc2c1)C(=O)N[C@H](Cc1ccc(Cl)cc1)C(=O)N[C@H](Cc1cccnc1)C(=O)N[C@@H](CO)C(=O)N[C@@H](CCCCNC(=O)c1cccnc1)C(=O)N[C@H](C[C@H]1CC[C@@H](NC(=O)c2cccnc2)CC1)C(=O)N[C@@H](CC(C)C)C(=O)N[C@@H](CCCCNC(C)C)C(=O)N1CCC[C@H]1C(=O)N[C@H](C)C(N)=O [compound 25648] (Ac-[d2Nal][dPhe(4-Cl)][d3Pal]SK(Nicotinoyl)[X4]L[Lys(iPr)]P[dA]-NH2) | 113.6
COc1ccc(NC(=O)CC[C@@H](NC(=O)[C@H](CCCCNC(=O)c2cccnc2)NC(=O)[C@H](CO)NC(=O)[C@@H](Cc2cccnc2)NC(=O)[C@@H](Cc2ccc(Cl)cc2)NC(=O)[C@@H](Cc2ccc3ccccc3c2)NC(C)=O)C(=O)N[C@@H](CC(C)C)C(=O)N[C@@H](CCCCNC(C)C)C(=O)N2CCC[C@H]2C(=O)N[C@H](C)C(N)=O)cc1 [compound 25588] (Ac-[d2Nal][dPhe(4-Cl)][d3Pal]SK(Nicotinoyl)[dE](NH(4-MeO-phenyl))L[Lys(iPr)]P[dA]-NH2) | 113 ± 7
CC(=O)N[C@H](Cc1ccc2ccccc2c1)C(=O)N[C@H](Cc1ccc(Cl)cc1)C(=O)N[C@H](Cc1cccnc1)C(=O)N[C@@H](CO)C(=O)N[C@@H](CCCCNC(=O)c1cnccn1)C(=O)N[C@H](CCCCNC(=O)c1cnccn1)C(=O)N[C@@H](CC(C)C)C(=O)N[C@@H](CCCCNC(C)C)C(=O)N1CCC[C@H]1C(=O)N[C@H](C)C(N)=O [compound 25650] (Ac-[d2Nal][dPhe(4-Cl)][d3Pal]SK(Pyrazinecarbonyl)[dK](Pyrazinecarbonyl)L[Lys(iPr)]P[dA]-NH2) | 110.2
CC[C@H](C)[C@H](NC(=O)[C@H](CO)NC(=O)[C@@H](Cc1cccnc1)NC(=O)[C@@H](Cc1ccc(Cl)cc1)NC(=O)[C@@H](Cc1ccc2ccccc2c1)NC(C)=O)C(=O)N[C@H](CCCCNC(=O)c1cccnc1)C(=O)N[C@@H](CC(C)C)C(=O)N[C@@H](CCCCNC(C)C)C(=O)N1CCC[C@H]1C(=O)N[C@H](C)C(N)=O [compound 25144] (Ac-[d2Nal][dPhe(4-Cl)][d3Pal]SI[dK](Nicotinoyl)L[Lys(iPr)]P[dA]-NH2) | 147.7

Source: patent US5763404A, “Methods for using LHRH antagonists with low histamine release” (priority 1995, dated 1998)
